The nature of the assay: Isothermal titration calorimetry (ITC), binding to ganglioside GM1. As to conditions: Table 1, pH 7.2, 35° C. As to the method:
Isothermal calorimetric titrations (ITC) were performed with a MicroCal VP-ITC microcalorimeter in pH 7.2 phosphate buffer solution. In individual titrations, 15 μL GM1:DPC 1:5 containing solution was injected from the computer-controlled […] microsyringe at intervals of 300 s into the ligand solution, dissolved in the same buffer as the GM1. All measurements were carried out at 35° C. The ligands concentration in the cell was 15 μM, and the concentration of GM1 in the syringe was 300 μM. Control experiments were performed by injecting GM1 into the cell containing buffer but no ligands Experiments were repeated twice. The experimental data were fitted to the one binding site or two independent sites model (adjustable parameters: ΔHb1, Kd1, n1 and ΔHb2, Kd2, n2) using a nonlinear least-squares procedure. Errors were calculated by jackknife resampling.
Binding of Trp-Tyr-Lys-Tyr-Trp (WYKYW) and analogues to various ganglioside derivatives was tested as described under “Isothermal Titration calorimetry” to explore the specificity of the interaction between WYKYW and GM1. Affinity data for binding between WYKYW and various ganglioside derivatives (FIG. 1), and for binding between various mutated sequences of WYKYW and GM1 (Table 1) were obtained by Isothermal Titration calorimetry as described in Example 1 (General methods).
For orientation: Isothermal titration calorimetry measures the heat released or taken up as one component is titrated into another.

The mark [1] stands for this setting: first binding step, read-out: KD1/nM.
[2] abbreviates: second binding step, read-out: KD2/nM.

Read-outs that look alike come from different tables or passages of the source.

`NCCCC[C@H](NC(=O)[C@H](Cc1ccc(O)cc1)NC(=O)[C@@H](N)Cc1c[nH]c2ccccc12)C(=O)N[C@H](Cc1ccc(O)cc1)C(=O)N[C@@H](Cc1c[nH]c2ccccc12)C(N)=O` [WYKyW]: the Kd under setting [1] was 3240 nM.

`NCCCC[C@H](NC(=O)[C@H](Cc1ccc(O)cc1)NC(=O)[C@H](N)Cc1c[nH]c2ccccc12)C(=O)N[C@@H](Cc1ccc(O)cc1)C(=O)N[C@@H](Cc1c[nH]c2ccccc12)C(N)=O` [wYKYW]: the Kd under setting [1] worked out at 881 nM.

WAKYW [Ala point mutation of WYKYW]: the Kd under setting [1] was determined as 5760 nM.

Take WYKYA [Ala point mutation of WYKYW]: the Kd under setting [1] is 1060 nM.

Trp-Tyr-Lys-β^3-homo-Tyr-Trp [WYKbYW]: the Kd stood at 40 nM under setting [1] and 1200 nM under setting [2].

As to WYKAW [Ala point mutation of WYKYW], the Kd under setting [1] is 1690 nM.

AYKYW [Ala point mutation of WYKYW]: where the note is “first binding step”, the KD1/nM entry is given as “not fittable”.

On to β^3-homo-Trp-Tyr-Lys-Tyr-Trp [bWYKYW], for which the Kd by setting is: under setting [1], 4.3 nM; under setting [2], 2100 nM.

Take `NCCCC[C@H](NC(=O)[C@@H](Cc1ccc(O)cc1)NC(=O)[C@@H](N)Cc1c[nH]c2ccccc12)C(=O)N[C@@H](Cc1ccc(O)cc1)C(=O)N[C@@H](Cc1c[nH]c2ccccc12)C(N)=O` [WyKYW]: the Kd under setting [1] came out at 892 nM.

In the case of `NCCCC[C@@H](NC(=O)[C@H](Cc1ccc(O)cc1)NC(=O)[C@@H](N)Cc1c[nH]c2ccccc12)C(=O)N[C@@H](Cc1ccc(O)cc1)C(=O)N[C@@H](Cc1c[nH]c2ccccc12)C(N)=O` [WYkYW], the Kd under setting [1] was 4520 nM.

Take Trp-β^3-homo-Tyr-Lys-Tyr-Trp [WbYKYW]: the Kd came to 60 nM under setting [1] and 1000 nM under setting [2].

As for `NCCCC[C@H](NC(=O)[C@H](Cc1ccc(O)cc1)NC(=O)[C@@H](N)Cc1c[nH]c2ccccc12)C(=O)N[C@@H](Cc1ccc(O)cc1)C(=O)N[C@H](Cc1c[nH]c2ccccc12)C(N)=O` [WYKYw], the Kd under setting [1] turned out to be 3930 nM.

On to WYAYW [Ala point mutation of WYKYW], for which the Kd under setting [1] was 10500 nM.

The record behind these values is patent US20220389057A1, “ENDOCYTOSIS ROUTING SEQUENCE PEPTIDE FOR CELL DELIVERY SYSTEMS” (SZEGEDI TUDOMÁNYEGYETEM, priority 2019, published 2022).
